# Where “and” joins values, the source holds several entries; their conditions need not be identical. Equal entries are not always repeated.
# Target: T1, MAL^TIR (Homo sapiens, UniProt P58753)
# T1 construct: MAL (residues 79–221); 6xHis; made in house; host or cells: E. coli BL21 (DE3)
# Test: T‐Surf phage library (P8 and P3) selection against MAL^TIR, four rounds, NGS read counts
# Assay type: binding
# Settings: for P3_MAL Rank (after) / P3_MAL Rank (before): P3 library; for P8_MAL Rank (after) / P8_MAL Rank (before): P8 library; for Population: 4th round of selection against MAL TIR, share of NGS reads
# Procedure, shortened: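 P8 and P3 T‐Surf libraries panned against plate-coated TIR domains (5 µg mL^−1), 1 h binding at RT, acid elution and TG1/helper-phage amplification per round. After four rounds, pools were PCR-barcoded and sequenced (NovaSeq, 100 bp paired-end, Phred ≥30); peptides ranked by read counts.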
# [1] = selection against MAL, rank by count after grouping
# [2] = selection against MAL, rank by count before grouping
# [3] = P3_MAL: rank by count after grouping
# [4] = P3_MAL: rank by count before grouping
# [5] = 4R selection against MAL, rank after grouping
# [6] = 4R selection against MAL, rank before grouping
# [7] = selection against MAL TIR, rank by count after grouping
# [8] = selection against MAL TIR, rank by count before grouping
# [9] = P8_MAL: rank by count after grouping
# [10] = P8_MAL: rank by count before grouping
# [11] = selection against MAL, rank after grouping
# [12] = selection against MAL, rank before grouping
# [13] = P8_MAL pool: P8 T-Surf phage library
# [14] = P3_MAL pool: P3 T-Surf phage library
# T1 sequence (P58753 79-221): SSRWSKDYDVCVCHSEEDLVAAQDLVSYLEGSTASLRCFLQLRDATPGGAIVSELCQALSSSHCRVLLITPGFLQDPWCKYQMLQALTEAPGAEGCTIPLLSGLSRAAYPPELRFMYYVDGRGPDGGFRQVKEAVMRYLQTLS
sequence,measurement,setting,value
NGYGSELIKEIVDTGV,P3_MAL Rank (after),[1],702
same,P3_MAL Rank (before),[2],3249
WFWNNLKYALPLRYDP,Rank (after),[3],451
same,Rank (before),[4],1266
PNLRTKELIYLMRTKT,P3_MAL Rank (after),[5],667
same,P3_MAL Rank (before),[6],2738
AFFWDSCVPCWANRR,P8_MAL Rank (after),[7],258
same,P8_MAL Rank (before),[8],1666
EWIREQLRRSSQSIAN,P3_MAL Rank (after),[7],222
same,P3_MAL Rank (before),[8],801
SFLHFLLFSRPDTEYI,Rank (after),[9],413
same,Rank (before),[10],1436
ESILNQRRPSSQSIAN,P3_MAL Rank (after),[5],595
same,P3_MAL Rank (before),[6],2071
PEKDHGGENAIIKNIE,P3_MAL Rank (after),[11],556
same,P3_MAL Rank (before),[12],2639
WFYERLVNLNLRDTKV,Rank (after),[9],140
same,Rank (before),[10],1242
CFYQRLVSLILHDTKV,P8_MAL Rank (after),[7],256
same,P8_MAL Rank (before),[8],1108
AFFWEQLRTLLGQPTM,Rank (after),[9],127
same,Rank (before),[10],1699
PFFWEQLRTVLGKPTK,P8_MAL Rank (after),[11],510
same,P8_MAL Rank (before),[12],2323
WFYERLVSLILRDTKX,Population,[13],0.0034%
WFFDGLVSLFLGDTKL,P8_MAL Rank (after),[11],537
same,P8_MAL Rank (before),[12],1112
WFYDRLVSLFLRDPKV,Rank (after),[9],476
same,Rank (before),[10],1140
SLLYDHLRCWAFVRF,P8_MAL Rank (after),[11],501
same,P8_MAL Rank (before),[12],2512
YAFTGHLHRFWCSVA,Rank (after),[3],158
same,Rank (before),[4],727
YFWNALENALAVNNDV,Rank (after),[3],479
same,Rank (before),[4],1335
LCFRESLKQLLRSNGR,P8_MAL Rank (after),[11],535
same,P8_MAL Rank (before),[12],2162
LFFWGSLKQLLRNDGR,Rank (after),[9],128
same,Rank (before),[10],2061
AFLYTFLINPTHPTNF,Population,[13],0.00309%
AFFGEQLVTGLAKRSS,P8_MAL Rank (after),[11],568
same,P8_MAL Rank (before),[12],1742
KLFWAICIMRWCRRAF,Rank (after),[9],175
same,Rank (before),[10],1070
SNLREGLWGLLELSKK,P3_MAL Rank (after),[1],684
same,P3_MAL Rank (before),[2],3216
WFYERLVSLLMRDTKV,Rank (after),[9],152
same,Rank (before),[10],1193
YAFTGHLERHEVQRGV,P3_MAL Rank (after),[1],715
same,P3_MAL Rank (before),[2],1367
LKAERWRQALEKAGKL,P3_MAL Rank (after),[7],226
same,P3_MAL Rank (before),[8],2304
DWFLSKLSQHILKKG,Rank (after),[3],393
same,Rank (before),[4],1892
TRFCDRRCLTVAGSSA,Rank (after),[3],409
same,Rank (before),[4],3235
YFLHLLLFSRPETEYN,P8_MAL Rank (after),[11],552
same,P8_MAL Rank (before),[12],1509
AFLYTFLINLTHPTNL,Population,[13],0.00371%
SSWWILKELQEILNYQ,P8_MAL Rank (after),[7],279
same,P8_MAL Rank (before),[8],2529
NQCRNALTPAAKLSSL,P3_MAL Rank (after),[11],538
same,P3_MAL Rank (before),[12],3423
AFLYTFLNNLTHTTNI,P8_MAL Rank (after),[11],536
same,P8_MAL Rank (before),[12],1872
AFTGHLHRYLVQRGV,Rank (after),[3],121
same,Rank (before),[4],408
SEFILQIILWMNPKIV,Rank (after),[9],165
same,Rank (before),[10],2449
NQWRNSLTAAANLSCW,P3_MAL Rank (after),[7],204
same,P3_MAL Rank (before),[8],3341
ESILNQLRRSSQSFAT,P3_MAL Rank (after),[7],260
same,P3_MAL Rank (before),[8],2056
ALFWAQLKCVMGNPAM,P8_MAL Rank (after),[1],705
same,P8_MAL Rank (before),[2],1932
AFFWAQLNSVLGNTTM,P8_MAL Rank (after),[1],710
same,P8_MAL Rank (before),[2],1608
RNFVAYLFQALAHKSI,Rank (after),[9],183
same,Rank (before),[10],2199
YAFTGHFHCCKLQRGV,P3_MAL Rank (after),[5],666
same,P3_MAL Rank (before),[6],1358
SKDYAQSAWALAEHEKR,P3_MAL Rank (after),[5],603
same,P3_MAL Rank (before),[6],3225
WHFPLPLRMQELLRKM,Rank (after),[3],436
same,Rank (before),[4],1289
AFLYTFLFNLTHQTNS,P8_MAL Rank (after),[5],590
same,P8_MAL Rank (before),[6],1883
WFYERLVSLILRNTRV,Rank (after),[9],118
same,Rank (before),[10],1290
RRLKWKEALHQLYSWV,P3_MAL Rank (after),[5],668
same,P3_MAL Rank (before),[6],2560
YNFISHLYDTLHRNRN,P3_MAL Rank (after),[7],272
same,P3_MAL Rank (before),[8],1578
VELAQVRKQRDAGEKV,Rank (after),[3],412
same,Rank (before),[4],1644
AFLYTFLINLTRQTNF,Rank (after),[9],147
same,Rank (before),[10],1837
KMKYWKDALYDASNLS,P3_MAL Rank (after),[11],510
same,P3_MAL Rank (before),[12],3703
WFYERLVSLMLRNTKV,P8_MAL Rank (after),[11],540
same,P8_MAL Rank (before),[12],1225
TFLGNLYNALVKAGIH,Rank (after),[9],135
same,Rank (before),[10],2614
SSFREGLWHLLELTKT,P3_MAL Rank (after),[11],525
same,P3_MAL Rank (before),[12],3171
TLLCHLYNALVQAGIH,P8_MAL Rank (after),[7],239
same,P8_MAL Rank (before),[8],2637
TFLGHLYNALVQAGIH,Population,[13],0.00463% and 0.00432% and 0.00402%
WFYERLVSLILPVTKV,P8_MAL Rank (after),[7],229
same,P8_MAL Rank (before),[8],1264
NQCSNALTGAAILSGW,P3_MAL Rank (after),[5],641
same,P3_MAL Rank (before),[6],3329
QLIQQWSELHLLQLHL,P8_MAL Rank (after),[5],621
same,P8_MAL Rank (before),[6],2387
KWFLAKLIYALSRNPH,P3_MAL Rank (after),[1],758
same,P3_MAL Rank (before),[2],3484
NQWRNALTAATNLSGG,Rank (after),[3],119
same,Rank (before),[4],3403
KEVEGWRDALTKAPI,P3_MAL Rank (after),[5],644
same,P3_MAL Rank (before),[6],3576
KLCWEKFKCFLPSLSR,Rank (after),[9],404
same,Rank (before),[10],2727
AFFGEQVSPVLGKPTM,Rank (after),[9],426
same,Rank (before),[10],1748
AFFWAQLKSGLGNPTK,Rank (after),[9],186
same,Rank (before),[10],1639
WFWDKLKYALPHRYEP,Rank (after),[9],113
same,Rank (before),[10],556
LQNQWKLALTAAANLSGW,P3_MAL Rank (after),[5],629
same,P3_MAL Rank (before),[6],2147
AFYWAQLKIVLGNPTM,P8_MAL Rank (after),[1],686
same,P8_MAL Rank (before),[2],1786
NQWRNELTAAANLNGW,P3_MAL Rank (after),[11],508
same,P3_MAL Rank (before),[12],3405
PNLRTKVLAYLNRTKT,P3_MAL Rank (after),[7],240
same,P3_MAL Rank (before),[8],2701
WFYEPLLSMLLRATKV,P8_MAL Rank (after),[1],706
same,P8_MAL Rank (before),[2],1296
HQWRNALTAAANLSGW,Population,[14],0.00902%
SKDYAQSAWALEELTK,Population,[14],0.0436%
same,Rank (after),[3],99
same,Rank (before),[4],99
YTALTNIGFHTFLDND,P3_MAL Rank (after),[7],195
same,P3_MAL Rank (before),[8],1542
YAFTGHQHNYMVQRGV,Rank (after),[3],420
same,Rank (before),[4],1447
YAFTGHLHRYLAQRGV,Population,[14],0.00488%
HQAFWKRPWAKLKPPT,Rank (after),[3],472
same,Rank (before),[4],2884
VTKLKKGKSIAPKLLR,Rank (after),[9],469
same,Rank (before),[10],1562
HQASWNRLWEQLKPRT,P3_MAL Rank (after),[11],505
same,P3_MAL Rank (before),[12],2891
SSFREGLWRLLELSNE,Rank (after),[3],153
same,Rank (before),[4],1027
RNFMAYLFQALAHKGI,P8_MAL Rank (after),[7],202
same,P8_MAL Rank (before),[8],2241
WFWVKLLYALTYRPGI,P3_MAL Rank (after),[5],651
same,P3_MAL Rank (before),[6],1227
SSFREGLWRLLALSTN,P3_MAL Rank (after),[1],723
same,P3_MAL Rank (before),[2],3142
SSFREGIWRLLELRKK,Rank (after),[3],394
same,Rank (before),[4],3183
SSFREGRWRLPEVSKT,Rank (after),[3],448
same,Rank (before),[4],3119
YAFTGHLTGYLVQRGV,P3_MAL Rank (after),[7],220
same,P3_MAL Rank (before),[8],1438
AFFWAQLKSELGNPTM,Population,[13],0.00463%
AFLYTFLINPTHPTNS,P8_MAL Rank (after),[7],255
same,P8_MAL Rank (before),[8],1859
VEPTQVRKQSGSVKNA,P3_MAL Rank (after),[7],244
same,P3_MAL Rank (before),[8],1663
YFLQVRLFNLLESDDR,P8_MAL Rank (after),[5],600
same,P8_MAL Rank (before),[6],1514
RLQECKEALHQFHSWV,P3_MAL Rank (after),[1],737
same,P3_MAL Rank (before),[2],2549
DWCLSKLSQHTLKREK,Rank (after),[3],481
same,Rank (before),[4],1908
PNLRTKVLHHLMRTKP,Rank (after),[3],405
same,Rank (before),[4],2706
AFFLGAAEKRAGQSDDX,Population,[13],0.00371%
RFFLESLKQLLRSDGR,Rank (after),[9],455
same,Rank (before),[10],2301
NQLRNALTASANLSGW,P3_MAL Rank (after),[5],613
same,P3_MAL Rank (before),[6],3325
RGCLSHLRHHLHAKEH,P3_MAL Rank (after),[5],590
same,P3_MAL Rank (before),[6],2423
AFLYAFLKNLTHPTNF,P8_MAL Rank (after),[1],683
same,P8_MAL Rank (before),[2],1813
WLYERLVSLSLRDTKV,Rank (after),[9],168
same,Rank (before),[10],1429
KLIQGWFLYRLMQIEQ,P8_MAL Rank (after),[1],707
same,P8_MAL Rank (before),[2],2749
YAFTGHLHRYLVQRDM,Rank (after),[3],391
same,Rank (before),[4],1403
RLLKWKEALHQFHSSL,Rank (after),[3],172
same,Rank (before),[4],2515
LFFCESLKQLLRSDGR,Population,[13],0.00371% and 0.0034%
KMQKWKDALYEAAN,P3_MAL Rank (after),[1],710
same,P3_MAL Rank (before),[2],3685

# From paper PMC11714206, “Massively Parallel Screening of Toll/Interleukin‐1 Receptor (TIR)‐Derived Peptides Reveals Multiple Toll‐Like Receptors (TLRs)‐Targeting Immunomodulatory Peptides” (Advanced Science, 2024)
